Reference: ChEMBL document CHEMBL1240372, “Murine model of a disseminated infection by the novel fungus Fonsecaea monophora and successful treatment with posaconazole” (Antimicrob Agents Chemother, 2010)
Values after ≈ are worked out from the molar mass of the structure shown. Active and inactive are the calls of the source. The calls are words filed in the database; no cut-off is given here.

Tests used:
[1] = Drug level in 1 x 10^6 CFU Fonsecaea monophora CBS 269.37 infected OF1 mouse serum at 1.5 mg/kg, ip qd administered 1 day after infection measured on day 6 after 4 hrs of last treatment; assay type: ADME, organism-based; set-up: dose 1.5 mg/kg, route intraperitoneal; conditions: read-out: Drug uptake
[2] = test system: Fonsecaea monophora; experiment: Antifungal activity against 1 x 10^6 CFU Fonsecaea monophora CBS 269.37 infected in […] OF1 mouse assessed as reduction in fungal load in kidney at 1.5 mg/kg, ip qd administered 1 day after infection for 7 days; assay type: functional, organism-based; set-up: dose 1.5 mg/kg
[3] = test system: Fonsecaea monophora; experiment: Antifungal activity against 2 x 10^5 CFU Fonsecaea monophora CBS 117236 infected in […] OF1 mouse assessed as reduction in fungal load in lung at 1.5 mg/kg, ip qd administered 1 day after infection for 7 days; assay type: functional, organism-based; set-up: dose 1.5 mg/kg
[4] = test system: Fonsecaea monophora; experiment: Antifungal activity against 1 x 10^6 CFU Fonsecaea monophora CBS 269.37 infected in OF1 mouse assessed as increase in mouse survival at 1.5 mg/kg, ip qd administered 1 day after infection for 7 days; assay type: functional, organism-based; set-up: dose 1.5 mg/kg
[5] = test system: Fonsecaea monophora; experiment: Antifungal activity against 1 x 10^6 CFU Fonsecaea monophora CBS 269.37 infected in […] OF1 mouse assessed as reduction in fungal load in lung at 1.5 mg/kg, ip qd administered 1 day after infection for 7 days; assay type: functional, organism-based; set-up: dose 1.5 mg/kg
[6] = test system: Fonsecaea monophora; experiment: Antifungal activity against 2 x 10^5 CFU Fonsecaea monophora CBS 117236 infected in […] OF1 mouse assessed as reduction in fungal load in spleen at 1.5 mg/kg, ip qd administered 1 day after infection for 7 days; assay type: functional, organism-based; set-up: dose 1.5 mg/kg
[7] = test system: Fonsecaea monophora; experiment: Antifungal activity against 1 x 10^6 CFU Fonsecaea monophora CBS 269.37 infected in […] OF1 mouse assessed as reduction in fungal load in spleen at 1.5 mg/kg, ip qd administered 1 day after infection for 7 days; assay type: functional, organism-based; set-up: dose 1.5 mg/kg
[8] = test system: Fonsecaea monophora; experiment: Antifungal activity against Fonsecaea monophora CBS 117236; assay type: functional
[9] = test system: Fonsecaea monophora; experiment: Antifungal activity against Fonsecaea monophora CBS 269.37; assay type: functional
[10] = test system: Fonsecaea monophora; experiment: Antifungal activity against 2 x 10^5 CFU Fonsecaea monophora CBS 117236 infected in […] OF1 mouse assessed as reduction in fungal load in kidney at 1.5 mg/kg, ip qd administered 1 day after infection for 7 days; assay type: functional, organism-based; set-up: dose 1.5 mg/kg
[11] = test system: Fonsecaea monophora; experiment: Antifungal activity against 1 x 10^6 CFU Fonsecaea monophora CBS 269.37 infected in OF1 mouse assessed as increase in mouse survival at 25 mg/kg, po bid administered 1 day after infection for 7 days; assay type: functional, organism-based; set-up: dose 25 mg/kg
[12] = Drug level in 1 x 10^6 CFU Fonsecaea monophora CBS 269.37 infected OF1 mouse brain at 50 mg/kg, po bid administered 1 day after infection measured on day 6 after 4 hrs of last treatment; assay type: ADME, organism-based; set-up: dose 50 mg/kg, route oral; conditions: read-out: Drug uptake
[13] = test system: Fonsecaea monophora; experiment: Antifungal activity against 1 x 10^6 CFU Fonsecaea monophora CBS 269.37 infected in po dosed OF1 mouse assessed as reduction in fungal load in spleen at 25 mg/kg, po bid administered 1 day after infection for 7 days; assay type: functional, organism-based; set-up: dose 25 mg/kg
[14] = test system: Fonsecaea monophora; experiment: Antifungal activity against 2 x 10^5 CFU Fonsecaea monophora CBS 117236 infected in OF1 mouse assessed as increase in mouse survival at 25 mg/kg, po bid administered 1 day after infection for 7 days; assay type: functional, organism-based; set-up: dose 25 mg/kg
[15] = Drug level in 1 x 10^6 CFU Fonsecaea monophora CBS 269.37 infected OF1 mouse serum at 50 mg/kg, po bid administered 1 day after infection measured on day 6 after 4 hrs of last treatment; assay type: ADME, organism-based; set-up: dose 50 mg/kg, route oral; conditions: read-out: Drug uptake
[16] = test system: Fonsecaea monophora; experiment: Antifungal activity against 1 x 10^6 CFU Fonsecaea monophora CBS 269.37 infected in po dosed OF1 mouse assessed as reduction in fungal load in lung at 25 mg/kg, po bid administered 1 day after infection for 7 days; assay type: functional, organism-based; set-up: dose 25 mg/kg
[17] = test system: Fonsecaea monophora; experiment: Antifungal activity against 2 x 10^5 CFU Fonsecaea monophora CBS 117236 infected in po dosed OF1 mouse assessed as reduction in fungal load in lung at 25 mg/kg, po bid administered 1 day after infection for 7 days; assay type: functional, organism-based; set-up: dose 25 mg/kg
[18] = test system: Fonsecaea monophora; experiment: Antifungal activity against 2 x 10^5 CFU Fonsecaea monophora CBS 117236 infected in po dosed OF1 mouse assessed as reduction in fungal load in kidney at 25 mg/kg, po bid administered 1 day after infection for 7 days; assay type: functional, organism-based; set-up: dose 25 mg/kg
[19] = test system: Fonsecaea monophora; experiment: Antifungal activity against 2 x 10^5 CFU Fonsecaea monophora CBS 117236 infected in po dosed OF1 mouse assessed as reduction in fungal load in spleen at 25 mg/kg, po bid administered 1 day after infection for 7 days; assay type: functional, organism-based; set-up: dose 25 mg/kg
[20] = test system: Fonsecaea monophora; experiment: Antifungal activity against 1 x 10^6 CFU Fonsecaea monophora CBS 269.37 infected in po dosed OF1 mouse assessed as reduction in fungal load in kidney at 25 mg/kg, po bid administered 1 day after infection for 7 days; assay type: functional, organism-based; set-up: dose 25 mg/kg
[21] = Drug level in 1 x 10^6 CFU Fonsecaea monophora CBS 269.37 infected OF1 mouse brain at 10 mg/kg, po qd administered 1 day after infection measured on day 6 after 4 hrs of last treatment; assay type: ADME, organism-based; set-up: dose 10 mg/kg, route oral; conditions: read-out: Drug uptake
[22] = test system: Fonsecaea monophora; experiment: Antifungal activity against 2 x 10^5 CFU Fonsecaea monophora CBS 117236 infected in po dosed OF1 mouse assessed as reduction in fungal load in kidney compound administered qd 1 day after infection for 7 days; assay type: functional, organism-based
[23] = test system: Fonsecaea monophora; experiment: Antifungal activity against 2 x 10^5 CFU Fonsecaea monophora CBS 117236 infected in po dosed OF1 mouse assessed as reduction in fungal load in spleen compound administered qd 1 day after infection for 7 days; assay type: functional, organism-based
[24] = test system: Fonsecaea monophora; experiment: Antifungal activity against 2 x 10^5 CFU Fonsecaea monophora CBS 117236 infected in po dosed OF1 mouse assessed as reduction in fungal load in brain compound administered qd 1 day after infection for 7 days; assay type: functional, organism-based
[25] = test system: Fonsecaea monophora; experiment: Antifungal activity against 2 x 10^5 CFU Fonsecaea monophora CBS 117236 infected in OF1 mouse assessed as increase in mouse survival at 20 mg/kg, po qd administered 1 day after infection for 7 days; assay type: functional, organism-based; set-up: dose 20 mg/kg
[26] = test system: Fonsecaea monophora; experiment: Antifungal activity against 1 x 10^6 CFU Fonsecaea monophora CBS 269.37 infected in po dosed OF1 mouse assessed as reduction in fungal load in spleen compound administered qd 1 day after infection for 7 days; assay type: functional, organism-based
[27] = test system: Fonsecaea monophora; experiment: Antifungal activity against 2 x 10^5 CFU Fonsecaea monophora CBS 117236 infected in OF1 mouse assessed as increase in mouse survival at 40 mg/kg, po qd administered 1 day after infection for 7 days; assay type: functional, organism-based; set-up: dose 40 mg/kg
[28] = test system: Fonsecaea monophora; experiment: Antifungal activity against 1 x 10^6 CFU Fonsecaea monophora CBS 269.37 infected in po dosed OF1 mouse assessed as reduction in fungal load in kidney compound administered qd 1 day after infection for 7 days; assay type: functional, organism-based
[29] = Drug level in 1 x 10^6 CFU Fonsecaea monophora CBS 269.37 infected OF1 mouse serum at 10 mg/kg, po qd administered 1 day after infection measured on day 6 after 4 hrs of last treatment; assay type: ADME, organism-based; set-up: dose 10 mg/kg, route oral; conditions: read-out: Drug uptake
[30] = Drug level in 1 x 10^6 CFU Fonsecaea monophora CBS 269.37 infected OF1 mouse serum at 20 mg/kg, po qd administered 1 day after infection measured on day 6 after 4 hrs of last treatment; assay type: ADME, organism-based; set-up: dose 20 mg/kg, route oral; conditions: read-out: Drug uptake
[31] = test system: Fonsecaea monophora; experiment: Antifungal activity against 2 x 10^5 CFU Fonsecaea monophora CBS 117236 infected in OF1 mouse assessed as increase in mouse body weight at 20 mg/kg, po qd administered 1 day after infection for 7 days; assay type: functional, organism-based; set-up: dose 20 mg/kg
[32] = test system: Fonsecaea monophora; experiment: Antifungal activity against 2 x 10^5 CFU Fonsecaea monophora CBS 117236 infected in po dosed OF1 mouse assessed as reduction in fungal load in lung compound administered qd 1 day after infection for 7 days; assay type: functional, organism-based
[33] = Drug level in 1 x 10^6 CFU Fonsecaea monophora CBS 269.37 infected OF1 mouse brain at 20 mg/kg, po qd administered 1 day after infection measured on day 6 after 4 hrs of last treatment; assay type: ADME, organism-based; set-up: dose 20 mg/kg, route oral; conditions: read-out: Drug uptake
[34] = test system: Fonsecaea monophora; experiment: Antifungal activity against 2 x 10^5 CFU Fonsecaea monophora CBS 117236 infected in OF1 mouse assessed as increase in mouse body weight at 10 mg/kg, po qd administered 1 day after infection for 7 days; assay type: functional, organism-based; set-up: dose 10 mg/kg
[35] = test system: Fonsecaea monophora; experiment: Antifungal activity against 1 x 10^6 CFU Fonsecaea monophora CBS 269.37 infected in OF1 mouse assessed as increase in mouse survival at 40 mg/kg, po qd administered 1 day after infection for 7 days; assay type: functional, organism-based; set-up: dose 40 mg/kg
[36] = test system: Fonsecaea monophora; experiment: Antifungal activity against 1 x 10^6 CFU Fonsecaea monophora CBS 269.37 infected in po dosed OF1 mouse assessed as reduction in fungal load in lung compound administered qd 1 day after infection for 7 days; assay type: functional, organism-based
[37] = test system: Fonsecaea monophora; experiment: Antifungal activity against 1 x 10^6 CFU Fonsecaea monophora CBS 269.37 infected in po dosed OF1 mouse assessed as reduction in fungal load in brain compound administered qd 1 day after infection for 7 days; assay type: functional, organism-based
[38] = Drug level in 1 x 10^6 CFU Fonsecaea monophora CBS 269.37 infected OF1 mouse serum at 40 mg/kg, po qd administered 1 day after infection measured on day 6 after 4 hrs of last treatment; assay type: ADME, organism-based; set-up: dose 40 mg/kg, route oral; conditions: read-out: Drug uptake
[39] = Drug level in 1 x 10^6 CFU Fonsecaea monophora CBS 269.37 infected OF1 mouse brain at 40 mg/kg, po qd administered 1 day after infection measured on day 6 after 4 hrs of last treatment; assay type: ADME, organism-based; set-up: dose 40 mg/kg, route oral; conditions: read-out: Drug uptake
[40] = test system: Fonsecaea monophora; experiment: Antifungal activity against 1 x 10^6 CFU Fonsecaea monophora CBS 269.37 infected in OF1 mouse assessed as increase in mouse survival at 20 mg/kg, po qd administered 1 day after infection for 7 days; assay type: functional, organism-based; set-up: dose 20 mg/kg
[41] = test system: Fonsecaea monophora; experiment: Antifungal activity against 2 x 10^5 CFU Fonsecaea monophora CBS 117236 infected in OF1 mouse assessed as increase in mouse survival at 10 mg/kg, po qd administered 1 day after infection for 7 days; assay type: functional, organism-based; set-up: dose 10 mg/kg

C[C@@H]1[C@H](O)[C@@H](C)/C=C/C=C/C=C/C=C/C=C/C=C/C=C/[C@H](O[C@@H]2O[C@H](C)[C@@H](O)[C@H](N)[C@@H]2O)C[C@@H]2O[C@](O)(C[C@@H](O)C[C@@H](O)[C@H](O)CC[C@@H](O)C[C@@H](O)CC(=O)O[C@H]1C)C[C@H](O)[C@H]2C(=O)O [AMPHOTERICIN B]
concentration at 4 h [1]: 6450 ng/mL | Activity [2]: Active | Activity [3]: Active | Activity [4]: Active | Activity [5]: Active | Activity [6]: Active | Activity [7]: Active | MIC [8]: 1 µg/mL (≈ 1.08 µM) | MIC [9]: 1 µg/mL (≈ 1.08 µM) | Activity [10]: Active

CCC(C)n1ncn(-c2ccc(N3CCN(c4ccc(OCC5COC(Cn6cncn6)(c6ccc(Cl)cc6Cl)O5)cc4)CC3)cc2)c1=O (stereo not given) [ITRACONAZOLE]
Activity [11]: inactive | concentration at 4 h [12]: 6880 ng/g | Activity [13]: Active | Activity [14]: inactive | concentration at 4 h [15]: 7320 ng/mL | Activity [16]: Active | Activity [17]: Active | Activity [18]: Active | MIC [8]: 0.25 µg/mL (≈ 0.354 µM) | MIC [9]: 0.5 µg/mL (≈ 0.709 µM) | Activity [19]: Active | Activity [20]: Active

CC[C@@H]([C@H](C)O)n1ncn(-c2ccc(N3CCN(c4ccc(OC[C@@H]5CO[C@@](Cn6cncn6)(c6ccc(F)cc6F)C5)cc4)CC3)cc2)c1=O [POSACONAZOLE]
concentration at 4 h [21]: 2020 ng/g | Activity [22]: Dose-dependent effect | Activity [23]: Dose-dependent effect | Activity [24]: Dose-dependent effect | Activity [25]: Active | Activity [26]: Dose-dependent effect | Activity [27]: Active | Activity [28]: Dose-dependent effect | concentration at 4 h [29]: 5170 ng/mL | concentration at 4 h [30]: 6350 ng/mL | Activity [31]: Active | Activity [32]: Dose-dependent effect | concentration at 4 h [33]: 2840 ng/g | MIC [8]: 0.12 µg/mL (≈ 0.171 µM) | Activity [34]: Active | MIC [9]: 0.25 µg/mL (≈ 0.357 µM) | Activity [35]: Active | Activity [36]: Dose-dependent effect | Activity [37]: Dose-dependent effect | concentration at 4 h [38]: 9720 ng/mL | concentration at 4 h [39]: 6730 ng/g | Activity [40]: Active | Activity [41]: Active
